{"source": "patent US6869791B2", "about": "“Method for sterilizing transformed cells” (Sumitomo Chemical Company, Ltd., priority 2000, dated 2005)", "key": {"[1]": {"test_system": "esterase in culture broth of E. coli JM105/pYHNK 2 strain", "description": "0.02 g of N-benzylazetidin-2-carboxyilic acid ethyl ester, 1.0 ml t-butyl methyl ether and 3.5 ml of 100 mM monopotassium phosphate-dipotassium phosphate buffer (pH 7.0) were added in a 10 ml threaded test tube and kept at 35′ for 15 minutes. 200 μl of the esterase solution was put in the test tube to measure its esterase activity and shaken reciprocally (120 str/min) at 35° C. for 16 minutes. Then 400% 1 of the mixed solution was centrifuged (12000 rpm, 5 minutes) after 1 ml t-butyl methyl ether was added and stirred. 200 μl of the obtained aqueous phase was analyzed quantitatively (by absolute calibration curve method) with respect to N-benzylazetidin-2-carboxylic acid by high performance liquid chromatography after dissolved in 20 mM phosphate acid monopotassium water/acetonitrile=90/10 and filtered by a 0.2 μl filter."}, "[2]": {"test_system": "E. coli JM105/pYHNK 2 strain", "assay_type": "cell-based, Escherichia coli"}, "[3]": {"test_system": "esterase derived from Chromobacterium SC-YM-1 (160S, 189Y mutant) in culture broth of E. coli JM 105/pCC160S189Y363term strain", "settings": "stirred 24 hours at 30° C.", "experimental": "Measurement of the enzyme activity was performed by using p-nitrophenyl acetate (pNPA) as a substrate. A sample enzyme solution was added to a 3.0 ml of 100 mM phosphate buffer solution (pH 7.5) containing the substrate at a concentration of 5 mM and the resulting mixture is maintained at 37° C. An amount of liberated p-nitrophenol was measured by the increase of absorbance at 405 nm."}, "[4]": {"test_system": "E. coli JM 105/pCC160S189Y363term strain", "settings": "stirred 24 hours at 30° C.", "experimental": "(§1) Number of viable cells was determined by the following method.\n(§2) About 1 ml of a sample solution to be measured with the number of viable cells was diluted with physiological saline cooled to 4° C. 100 μl of the diluted solution was applied onto a LB-medium plate (L-Broth Ager (manufactured by BIO 101 Company, Ltd) containing ampicilline at a concentration of 100 μ/ml and kept at 37° C. for 1 to 2 days. Thereafter, number of the viable cells was calculated from the number of colonies grown thereon."}, "[5]": {"test_system": "E. coli JM105/pEAR5 strain", "settings": "stirred 24 hours at 30° C.", "experimental": "as §1, §2"}, "[6]": {"test_system": "esterase derived from Arthrobacter SC-6-98-28 in culture broth of E. coli JM105/pEAR5 strain", "settings": "stirred 24 hours at 30° C.", "experimental": "Measurement of the Esterase Activity in Example 13 and 14:\nTo 5 ml of a diluted solution of the culture broth or sterilized solution obtained by the pre sent method was added 1 g of 2,2-dichloro-3-(1-propenyl)cyclopropane-1-carboxylic acid methyl ester (1R/1S=50/50, trans/cis98/2) and the resulting mixture was stirred at 45° C. for 30 minutes while maintaining the pH at 10.0. A portion of the reaction solution was sampled, acidified with hydrochloric acid, and extracted with ethyl acetate. The extract solution was analyzed by gas-chromatography to measure the hydrolysis rate (Internal standard: methyl cinnamate, column: HR20M 0.53 φ, 30 m, 1 μ, ULBON). The esterase activity was calculated from the hydrolysis rate."}, "[7]": {"settings": "Example 9: 40 ml culture broth + 10 ml acetone, stirred 24 hours at 30° C."}, "[8]": {"settings": "Example 10: 40 ml culture broth + 10 ml acetone, stirred 6 hours at 30° C."}, "[9]": {"settings": "Example 11: 40 ml culture broth + 10 ml acetone, stirred 48 hours at 30° C."}, "[10]": {"settings": "Example 12: 40 ml culture broth + 6.5 ml acetone, stirred 24 hours at 30° C."}, "[11]": {"settings": "Example 15: 45 g culture broth + 5 g ethanol"}, "[12]": {"settings": "Example 16: 37.5 g culture broth + 12.5 g ethanol"}, "[13]": {"settings": "Example 13: 45 g culture broth + 5 g ethanol"}, "[14]": {"settings": "Example 14: 37.5 g culture broth + 12.5 g ethanol"}, "[15]": {"settings": "Example 1: 40 ml culture broth + 10 ml ethanol, stirred 24 hours at 30° C."}, "[16]": {"settings": "Example 2: 40 ml culture broth + 10 ml ethanol, stirred 6 hours at 30° C."}, "[17]": {"settings": "Example 3: 40 ml culture broth + 10 ml ethanol, stirred 48 hours at 30° C."}, "[18]": {"settings": "Example 4: 42.5 ml culture broth + 7.5 ml ethanol, stirred 24 hours at 30° C."}, "[19]": {"settings": "Example 5: 40 ml culture broth + 10 ml methanol, stirred 24 hours at 30° C."}, "[20]": {"settings": "Example 6: 40 ml culture broth + 10 ml methanol, stirred 6 hours at 30° C."}, "[21]": {"settings": "Example 7: 40 ml culture broth + 10 ml methanol, stirred 48 hours at 30° C."}, "[22]": {"settings": "Example 8: 40 ml culture broth + 10 ml methanol, stirred 5 hours at 25° C."}}, "note": "Read-outs that look alike come from different tables or passages of the source."}
{"smiles": "CC(C)=O", "note": "[acetone]", "values": [{"measurement": "esterase activity of the mixed solution, relative to culture broth (1)", "setting": "[1]; [7]", "result": "≥ 95", "unit": "%"}, {"measurement": "esterase activity of the mixed solution, relative to culture broth (1)", "setting": "[1]; [8]", "result": "≥ 95", "unit": "%"}, {"measurement": "esterase activity of the mixed solution, relative to culture broth (1)", "setting": "[1]; [9]", "result": "≥ 95", "unit": "%"}, {"measurement": "esterase activity of the mixed solution, relative to culture broth (1)", "setting": "[1]; [10]", "result": "≥ 95", "unit": "%"}, {"measurement": "viable cell number", "setting": "[2]; [7]", "result": 0, "unit": "cfu/ml"}, {"measurement": "viable cell number", "setting": "[2]; [8]", "result": 0, "unit": "cfu/ml"}, {"measurement": "viable cell number", "setting": "[2]; [9]", "result": 0, "unit": "cfu/ml"}, {"measurement": "viable cell number", "setting": "[2]; [10]", "result": 0, "unit": "cfu/ml"}]}
{"smiles": "CCO", "note": "[ethanol]", "values": [{"measurement": "esterase activity of the solution, relative to culture broth (3)", "setting": "[3]; [11]", "result": "≥ 95", "unit": "%"}, {"measurement": "esterase activity of the solution, relative to culture broth (3)", "setting": "[3]; [12]", "result": "≥ 95", "unit": "%"}, {"measurement": "viable cell number", "setting": "[4]; [11]", "result": 0, "unit": "cfu/ml"}, {"measurement": "viable cell number", "setting": "[4]; [12]", "result": 0, "unit": "cfu/ml"}, {"measurement": "viable cell number", "setting": "[5]; [13]", "result": 0, "unit": "cfu/ml"}, {"measurement": "viable cell number", "setting": "[5]; [14]", "result": 0, "unit": "cfu/ml"}, {"measurement": "esterase activity of the mixed solution, relative to culture broth (1)", "setting": "[1]; [15]", "result": "≥ 95", "unit": "%"}, {"measurement": "esterase activity of the mixed solution, relative to culture broth (1)", "setting": "[1]; [16]", "result": "≥ 95", "unit": "%"}, {"measurement": "esterase activity of the mixed solution, relative to culture broth (1)", "setting": "[1]; [17]", "result": "≥ 95", "unit": "%"}, {"measurement": "esterase activity of the mixed solution, relative to culture broth (1)", "setting": "[1]; [18]", "result": "≥ 95", "unit": "%"}, {"measurement": "viable cell number", "setting": "[2]; [15]", "result": 0, "unit": "cfu/ml"}, {"measurement": "viable cell number", "setting": "[2]; [16]", "result": 0, "unit": "cfu/ml"}, {"measurement": "viable cell number", "setting": "[2]; [17]", "result": 0, "unit": "cfu/ml"}, {"measurement": "viable cell number", "setting": "[2]; [18]", "result": 0, "unit": "cfu/ml"}, {"measurement": "esterase activity of the solution, relative to culture broth (2)", "setting": "[6]; [13]", "result": "≥ 95", "unit": "%"}, {"measurement": "esterase activity of the solution, relative to culture broth (2)", "setting": "[6]; [14]", "result": "≥ 95", "unit": "%"}]}
{"smiles": "CO", "note": "[methanol]", "values": [{"measurement": "esterase activity of the mixed solution, relative to culture broth (1)", "setting": "[1]; [19]", "result": "≥ 95", "unit": "%"}, {"measurement": "esterase activity of the mixed solution, relative to culture broth (1)", "setting": "[1]; [20]", "result": "≥ 95", "unit": "%"}, {"measurement": "esterase activity of the mixed solution, relative to broth solution (1)", "setting": "[1]; [21]", "result": "≥ 95", "unit": "%"}, {"measurement": "esterase activity of the mixed solution, relative to culture broth (1)", "setting": "[1]; [22]", "result": "≥ 92", "unit": "%"}, {"measurement": "viable cell number", "setting": "[2]; [19]", "result": 0, "unit": "cfu/ml"}, {"measurement": "viable cell number", "setting": "[2]; [20]", "result": 0, "unit": "cfu/ml"}, {"measurement": "viable cell number", "setting": "[2]; [21]", "result": 0, "unit": "cfu/ml"}, {"measurement": "viable cell number", "setting": "[2]; [22]", "result": 0, "unit": "cfu/ml"}]}
